# PMC9814091, “The making of a potent L-lactate transport inhibitor” (Communications Chemistry, 2021)
# Like-named read-outs stand apart in the source and are kept apart here.
# Tests used:
# [1] = target: T1, SfMCT Y331F mutant (Syntrophobacter fumaroxidans, UniProt A0LNN5, Y331F); format: cell-based; settings: 25 µM 1OHN2C; 10 µM N2C, 3PP, 2M3PP
# T1 construct: expressed in transfected cells; host or cells: E. coli JA202 (inferred: same uptake protocol as wild type)
# Description: Uptake experiments were done as described previously[6],[40]. Overnight precultures of E. coli JA202 (MC4100 glcA::cat lldP::kan)[42], which were transformed with a plasmid carrying SfMCT (pEXT20-SfMCT-3C-10His), were diluted 1:200 into LB-medium supplemented with 100 μg/ml ampicillin. Cultures were grown at 37 °C and 180 r.p.m. in an incubator shaker (Multitron, Infors HT). At OD600 ~0.5, isopropyl-β-D-thiogalactopyranoside was added to the culture to a final concentration of 250 µM to induce SfMCT expression. In the case of E. coli MC4100 (DSM 6574, German Collection of Microorganisms and Cell Cultures), an overnight preculture was diluted 1:200 into LB-medium supplemented with 50 μg/ml streptomycin and grown at 37 °C and 180 r.p.m. in an incubator shaker (Multitron, Infors HT). Bacteria were harvested 4 h post-induction (E. coli JA202) or 6 h post-inoculation (E. coli MC4100) (5200 × g, 10 min, room temperature). The supernatant was discarded and the bacteria were gently resuspended in uptake buffer (20 mM Bis-Tris propane-HCl (pH 6.7), 250 mM KCl). The density of the bacteria suspension was adjusted to OD600 12. Transport experiments were done in a reaction volume of 50 µl, which consisted of 20 µl cell-suspension (2.4 × 10^8 bacteria), 10 µl substrate master mix (67 µM sodium L-lactate spiked with [14C(U)] L-lactic acid sodium salt ([^14C]L-lactate, American Radiolabeled Chemicals) to a specific activity of 0.15 Ci/mmol) and 20 µl monocarboxylate inhibitor solution. […] All monocarboxylate inhibitors were purchased from Merck (i.e., SigmaAldrich) with the exception of 6-methyl-salicylate (6MSA) that was purchased from Fluorochem. Uptake experiments were performed in 2 ml reaction tubes (Eppendorf) at 30 °C under agitation (1000 r.p.m., Thermomixer compact, Eppendorf). After 30 min, reactions were stopped by adding 900 μl stop buffer (20 mM HEPES-NaOH (pH 7.5), 150 mM NaCl) followed by centrifugation (21,000 × g, 4 min, room temperature). Pelleted bacteria were then washed two times with 900 μl stop buffer to remove free radioligand. […]
# [2] = target: T2, SfMCT (Syntrophobacter fumaroxidans, UniProt A0LNN5); test: cell-based; format: cell-based; settings: for times more potent than BA (starting compound): ratio of Ki values versus BA
# T2 construct: expressed in transfected cells; host or cells: E. coli JA202 (MC4100 glcA::cat lldP::kan) transformed with pEXT20-SfMCT-3C-10His
# T2 sequence (A0LNN5 1-412): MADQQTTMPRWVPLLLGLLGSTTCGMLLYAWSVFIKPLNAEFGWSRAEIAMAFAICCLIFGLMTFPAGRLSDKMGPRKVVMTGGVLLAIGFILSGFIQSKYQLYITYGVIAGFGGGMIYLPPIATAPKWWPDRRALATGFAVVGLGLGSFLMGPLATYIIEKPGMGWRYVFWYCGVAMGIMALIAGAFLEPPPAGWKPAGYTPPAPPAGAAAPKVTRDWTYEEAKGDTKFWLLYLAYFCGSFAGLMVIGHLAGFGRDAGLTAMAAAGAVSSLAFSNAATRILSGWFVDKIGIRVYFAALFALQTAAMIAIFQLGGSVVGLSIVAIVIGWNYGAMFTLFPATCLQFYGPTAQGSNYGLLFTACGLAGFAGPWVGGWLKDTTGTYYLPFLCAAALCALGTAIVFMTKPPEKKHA
# Description: The previously characterized ligand binding site provides space to accommodate molecules that are larger than TSA. […] Only molecules containing one carboxylate-group were considered (i.e., monocarboxylates) as R280 (TM8) is the only positively-charged residue in the ligand binding site region. […] The binding site also contains hydrophobic and aromatic residues, which can be involved in hydrophobic and π-stacking interactions with bound molecules. Therefore, the focus of the screen was set on aromatic monocarboxylates, which are summarized in Supplementary Fig. 1. To evaluate the inhibitory effect of the selected molecules, an inhibition assay was set up where the transport of [^14C]L-lactate through SfMCT was measured in the absence and presence of different inhibitors at decreasing concentrations. In a first step, the inhibitory effects of BA, as well as hydroxylated and methylated BA derivatives on L-lactate transport, were investigated at a concentration of 500 µM (Fig. 1A, red).
# Uptake experiments were done as described previously[6],[40]. Overnight precultures of E. coli JA202 (MC4100 glcA::cat lldP::kan)[42], which were transformed with a plasmid carrying SfMCT (pEXT20-SfMCT-3C-10His), were diluted 1:200 into LB-medium supplemented with 100 μg/ml ampicillin. Cultures were grown at 37 °C and 180 r.p.m. in an incubator shaker (Multitron, Infors HT). At OD600 ~0.5, isopropyl-β-D-thiogalactopyranoside was added to the culture to a final concentration of 250 µM to induce SfMCT expression. In the case of E. coli MC4100 (DSM 6574, German Collection of Microorganisms and Cell Cultures), an overnight preculture was diluted 1:200 into LB-medium supplemented with 50 μg/ml streptomycin and grown at 37 °C and 180 r.p.m. in an incubator shaker (Multitron, Infors HT). Bacteria were harvested 4 h post-induction (E. coli JA202) or 6 h post-inoculation (E. coli MC4100) (5200 × g, 10 min, room temperature). The supernatant was discarded and the bacteria were gently resuspended in uptake buffer (20 mM Bis-Tris propane-HCl (pH 6.7), 250 mM KCl). The density of the bacteria suspension was adjusted to OD600 12. Transport experiments were done in a reaction volume of 50 µl, which consisted of 20 µl cell-suspension (2.4 × 10^8 bacteria), 10 µl substrate master mix (67 µM sodium L-lactate spiked with [14C(U)] L-lactic acid sodium salt ([^14C]L-lactate, American Radiolabeled Chemicals) to a specific activity of 0.15 Ci/mmol) and 20 µl monocarboxylate inhibitor solution. […] All monocarboxylate inhibitors were purchased from Merck (i.e., SigmaAldrich) with the exception of 6-methyl-salicylate (6MSA) that was purchased from Fluorochem. Uptake experiments were performed in 2 ml reaction tubes (Eppendorf) at 30 °C under agitation (1000 r.p.m., Thermomixer compact, Eppendorf). After 30 min, reactions were stopped by adding 900 μl stop buffer (20 mM HEPES-NaOH (pH 7.5), 150 mM NaCl) followed by centrifugation (21,000 × g, 4 min, room temperature). Pelleted bacteria were then washed two times with 900 μl stop buffer to remove free radioligand. Finally, bacteria were lysed using 50 μl 5% (w/v) sodium dodecylsulfate and transferred into a 96-well plate (Optiplate, PerkinElmer). 150 µl scintillation cocktail (MicroScint 40, PerkinElmer) were added to each well before measuring each well for 2 min with a scintillation counter (TopCount NXT, PerkinElmer). For data analysis Prism6 (GraphPad Software) was used.
# [3] = tested on: E. coli L-lactate permeases (i.e., LldP and GlcA); test: [14C]L-lactate transport into E. coli MC4100 (test for a protonophoric effect); format: cell-based; settings: 100 µM compound
# [4] = target: T2, SfMCT; test: Transport assay with radiolabeled monocarboxylates as potential SfMCT substrates; format: cell-based; settings: 40 µM 14C-labeled compound, 0.1 µCi per reaction
# [5] = target: T2, SfMCT; set-up: method as in PMID 31201333; settings: cited from earlier work
# [6] = inhibitor 25 µM, naphthoate derivatives (Fig. 1A, orange)
# [7] = [14C]L-lactate uptake, SfMCT-expressing E. coli JA202, pH 6.7, 30 °C, 30 min, read-out: Ki (inhibition of L-lactate transport)
# [8] = inhibitor 10 µM, hydroxylated and methylated 3PP derivatives (Fig. 1A, magenta)
# [9] = inhibitor 100 µM, methylated SA derivatives and 3OH4MBA (Fig. 1A, blue)
# [10] = inhibitor 500 µM, BA and hydroxylated and methylated BA derivatives (Fig. 1A, red)
# T1 sequence (A0LNN5 whole entry Y331F): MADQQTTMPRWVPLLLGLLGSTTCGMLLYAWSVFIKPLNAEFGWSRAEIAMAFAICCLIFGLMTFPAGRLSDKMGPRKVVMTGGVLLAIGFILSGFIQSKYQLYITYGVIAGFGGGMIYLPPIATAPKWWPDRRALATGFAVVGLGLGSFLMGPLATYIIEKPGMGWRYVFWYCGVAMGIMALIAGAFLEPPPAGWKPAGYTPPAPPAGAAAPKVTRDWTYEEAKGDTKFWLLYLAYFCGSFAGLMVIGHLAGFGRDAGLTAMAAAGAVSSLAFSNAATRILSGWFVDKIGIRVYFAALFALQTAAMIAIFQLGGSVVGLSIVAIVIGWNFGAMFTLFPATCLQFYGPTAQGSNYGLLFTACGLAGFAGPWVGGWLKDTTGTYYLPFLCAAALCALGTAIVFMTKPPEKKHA
structure (smiles),measurement,setting,value
"O=C(O)c1ccc2ccccc2c1O [1OHN2C, 1-hydroxy-2-naphthoate]",reduction of L-lactate transport inhibition by the Y331F mutation versus wild type,[1],~ 2 fold
same,Ki,[2],16.2 µM
same,inhibitory effect on L-lactate transport in the screen,[2]; [6],strongest reduction of L-lactate transport among the tested naphthoate derivatives
same,effect on [14C]L-lactate transport activity of E. coli MC4100,[3],no significant reduction
"Cc1ccccc1CCC(=O)O [2M3PP, 3-(2-methylphenyl)-propionate]",reduction of L-lactate transport inhibition by the Y331F mutation versus wild type,[1],~ 2 fold
same,Ki,[2]; [7],0.469 µM
same,inhibitory effect on L-lactate transport in the screen,[2]; [8],strongest inhibitory effect on L-lactate transport among the tested methylated derivatives
same,times more potent than BA (starting compound),[2],~1000 times
same,effect on [14C]L-lactate transport activity of E. coli MC4100,[3],no significant reduction
"O=C(O)CCc1cccc(O)c1 [3OH3PP, 3-(3-hydroxyphenyl)-propionate]",inhibitory effect on L-lactate transport in the screen,[2]; [8],strongest L-lactate transport reduction among the tested hydroxylated derivatives
"Cc1ccc(C(=O)O)cc1O [3OH4MBA, 3-hydroxy-4-methyl-benzoate]",inhibitory effect on L-lactate transport in the screen,[2]; [9],strongly reduced inhibition of L-lactate transport
"O=C(O)CCc1ccccc1 [3PP, 3-phenylpropionate]",Ki,[2],0.812 µM
same,inhibitory effect on L-lactate transport in the molecular ruler experiment,"[2]; BA, PA, 3PP and 4PB compared (Fig. 1A, black)",most potent inhibitor
same,times more potent than BA (starting compound),[2],~ 530 times
same,effect on [14C]L-lactate transport activity of E. coli MC4100,[3],no significant reduction
same,transport of the radiolabeled compound by SfMCT,[4],does not transport
"Cc1ccc(C(=O)O)cc1 [4MBA, 4-methyl-benzoate]",Ki,[2],13.4 µM
same,inhibitory effect on L-lactate transport in the screen,[2]; [10],strongest reduction of L-lactate transport activity
same,times more potent than BA (starting compound),[2],~ 30 times
"Cc1ccc(C(=O)O)c(O)c1 [4MSA, 4-methyl-salicylate]",Ki,[2],24.4 µM
same,inhibitory effect on L-lactate transport in the screen,[2]; [9],strongest reduction of L-lactate transport among the methylated SA-derivatives
"O=C(O)c1ccccc1 [BA, benzoate]",Ki,[2],431 µM
"O=C(O)/C=C/c1ccccc1 [CA, trans-cinnamate]",Ki,[2],2.5 µM
"N#CC(C#N)=NNc1cccc(Cl)c1 [CCCP, carbonyl cyanide 3-chlorophenylhydrazone, reference compound]",effect on [14C]L-lactate transport activity of E. coli MC4100,[3],reduced the uptake activity almost
"O=C(O)c1ccc2ccccc2c1 [N2C, 2-naphthoate]",reduction of L-lactate transport inhibition by the Y331F mutation versus wild type,[1],~ 2 fold
same,Ki,[2]; [7],2.4 µM
same,inhibitory effect on L-lactate transport in the screen,[2]; [6],strongest reduction of L-lactate transport among the tested naphthoate derivatives
same,effect on [14C]L-lactate transport activity of E. coli MC4100,[3],no significant reduction
"O=C(O)c1ccccc1O [SA, salicylate]",Ki,[2],362 µM
same,inhibitory effect on L-lactate transport in the screen,[2]; [10],strongest decrease in L-lactate transport activity
same,transport of the radiolabeled compound by SfMCT,[4],does not transport
"O=C(O)c1ccccc1S [TSA, thiosalicylate]",transport of the compound by SfMCT,[5],non-transported
